From publication PMC8273889, “Exploiting Electrode Nanoconfinement to Investigate the Catalytic Properties of Isocitrate Dehydrogenase (IDH1) and a Cancer-Associated Variant” (The Journal of Physical Chemistry Letters, 2021)

Columns and labels:
Format in all cases: biochemical
[1] = target: T1, IDH1 (isocitrate dehydrogenase 1) (Homo sapiens, UniProt O75874); assay: electrochemical turnover (cyclic voltammetry) with nanoconfined purified enzyme
T1 construct: homodimeric (2 × 47 kDa)

[2] = target: T2, IDH1 R132H (isocitrate dehydrogenase 1) (Homo sapiens, UniProt O75874, R132H); assay: as above
T2 construct: homodimeric (2 × 47 kDa)
T2 sequence (O75874 2-414 R132H): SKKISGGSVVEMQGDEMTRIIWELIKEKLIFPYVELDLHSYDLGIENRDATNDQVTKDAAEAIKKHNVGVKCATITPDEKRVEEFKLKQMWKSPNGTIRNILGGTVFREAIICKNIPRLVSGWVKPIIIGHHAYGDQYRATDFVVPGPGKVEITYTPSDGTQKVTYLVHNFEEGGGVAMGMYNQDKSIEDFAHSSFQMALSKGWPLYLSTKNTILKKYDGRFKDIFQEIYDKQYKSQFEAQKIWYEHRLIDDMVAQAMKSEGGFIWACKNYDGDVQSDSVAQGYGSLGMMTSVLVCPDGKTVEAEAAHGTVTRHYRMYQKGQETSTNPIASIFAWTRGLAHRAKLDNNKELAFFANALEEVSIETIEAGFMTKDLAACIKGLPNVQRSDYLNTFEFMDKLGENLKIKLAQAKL

[3] = target: T1, IDH1 (isocitrate dehydrogenase 1); assay: bidirectional cyclic voltammetry of 2OG/isocitrate interconversion with CO2 supplied by carbonic anhydrase

T1 sequence (O75874 2-414): as the sequence (O75874 2-414 R132H) above, with H131R counted along it

O=C(O)CC(C(=O)O)C(O)C(=O)O (stereo not drawn) [isocitrate]
electrochemical turnover (cyclic voltammetry) with nanoconfined purified enzyme [1]: IDH1 (Figure 1A, B) is an excellent catalyst for isocitrate oxidation

O=C(O)CCC(=O)C(=O)O [2OG, 2-oxoglutarate]
electrochemical turnover (cyclic voltammetry) with nanoconfined purified enzyme [2]: R132H-catalyzed 2OG reduction (Figure 1C, D) is much slower, manifesting low currents
bidirectional cyclic voltammetry of 2OG/isocitrate interconversion with CO2 supp [3]: Cyclic voltammetry measuring bidirectionality of IDH1-catalyzed 2OG/isocitrate interconversion at different 2OG/isocitrate ratios
